US7183067B2 (priority 2002, dated 2007)

Legend:
concanavalin A (Con A) [1] = molecular target: T1, concanavalin A (Con A) (Canavalia ensiformis, UniProt P02866); assay: biochemical; format: binding
T1 construct: purchased SEIKAGAKU KOGYO

Pea Lectin (PSA) = molecular target: T2, Pea Lectin (PSA) (Pisum sativum, UniProt P02867); assay: SPR measurement of ligand-introduced chip with PSA; format: binding
T2 construct: purchased SEIKAGAKU KOGYO
T2 sequence (P02867 31-211 limits assumed): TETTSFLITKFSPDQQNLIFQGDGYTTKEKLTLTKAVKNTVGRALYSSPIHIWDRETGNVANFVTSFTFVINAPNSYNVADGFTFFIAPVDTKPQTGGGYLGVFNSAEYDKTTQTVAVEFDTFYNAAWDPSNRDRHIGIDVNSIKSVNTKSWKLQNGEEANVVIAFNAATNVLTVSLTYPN
T2 sequence (P02867 218-269 limits assumed): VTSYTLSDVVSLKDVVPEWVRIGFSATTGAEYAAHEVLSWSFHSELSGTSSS
Method: (§1) PBS solutions containing proteins of various concentrations were flown onto the ligand-introduced chip obtained in (5-1) by 60 μL at a flow rate of 20 μL/min so as to observe the binding and dissociating behavior of the ligand-introduced chip with each protein by an SPR measurement.
(§2) The following proteins were used. • BSA (SIGMA ALUBMUN, BOVINE) • Concanavalin A (SEIKAGAKU KOGYO) • Pea Lectin (SEIKAGAKU KOGYO) • Peanut Lectin (SEIKAGAKU KOGYO) • RCA120 (SEIKAGAKU KOGYO)
(§3) Moreover, Con A of various concentrations was acted on the ligand-introduced chip so as to conduct an SPR measurement on an interaction. Also, an SPR measurement was also conducted on an interaction with BSA and PSA so as to observe a resonant angle change.
(§4) Further, ligand-introduced chips were produced which includes 4-Mal and 4-Glc of the present invention and 2-Mal and 2-Glc serving as a comparative example immobilized thereon. Con A, BSA, PSA, RCA120, and PNA solutions of various concentrations were flown onto the ligand-introduced chips so as to observe a resonant angle change by an SPR measurement.

BSA = molecular target: T3, BSA (Bos taurus, UniProt P02769); assay: SPR measurement of ligand-introduced chip with BSA; format: binding, bovine
T3 construct: purchased SIGMA
Method: as §1, §2, §3, §4

neutroavidin = molecular target: T4, neutroavidin (Gallus gallus, UniProt P02701); assay: Immobilization of ligand onto neutroavidin-immobilized SPR sensor chip; format: binding; settings: ligand solutions flown until no further increase
T4 construct: purchased PIERCE CA47105
Method: The ligand-introduced chip was obtained by the following procedure. In the beginning, a sensor chip (manufactured by Japan Laser Electronics Co., Ltd.), prepared by depositing a gold thin film of 50 nm thick on a glass substrate of 13 mm×20 mm×0.7 mm, was placed in a UV ozone cleaner (product name: NL-UV253, Japan Laser Electronics Co., Ltd.) and was exposed to ultraviolet rays for 20 minutes so as to wash the surface of the sensor chip with ozone. Next, the sensor chip was immersed in a 4,4′-methanol dithiobutyrate solution (100 μM) in a Petri dish and gently shaken for 30 minutes at room temperature (product name: Bio Dancer, New Brunswick Scientific Co., Ltd.). 4-thiobutyric acid was immobilized onto the chip through a gold-sulfur bond. The chip was washed three times with ethanol. […] A surface plasmon resonant angle change then observed was monitored. […]
Next, 4.9 μM, 16.3 μM, and 49 μM 4-Mal solutions were flown onto (S) by 60 μL at a flow rate of 10 μL/min for immobilization; 0.49 μM and 4.9 μM 4-Glc solutions were flown onto (R) by 60 μL at a flow rate of 10 μL/min for immobilization. […] A resonant angle change quantity between a point of time when the resonant angle change had become constant and a point of time before the immobilization was defined as a immobilization quantity. […] In this sensorgram, the immobilization quantity of 4-Mal was 220 RU and that of 4-Gcl was 220 RU. […]

concanavalin A (Con A) [2] = molecular target: T1, concanavalin A (Con A); assay: Affinity chromatography on 4-Mal affinity column, SDS-PAGE of fractions: Con A; format: binding; settings: mixed solution of Con A, PSA and BSA in PBS; elution with PBS, glucose, NaOH
Method: Following a general producing method of an affinity column, an affinity column including the ligand 4-Mal, obtained in Example 4, immobilized thereto. As a column carrier, Hitrap NHS-activated Hp (column volume 1 mL; manufactured by Amersham Co., Ltd.) was used. The column carrier, including a gel matrix and N-hydroxysuccinimide serving as an active group immobilized thereon through a spacer ([…] NHS group per 1 mL gel), is suitable to immobilizing onto a carrier a compound having an amino group. FIG. 6 is a schematic diagram showing the steps for preparation of an affinity column. […]
Absorbance of the fractions collected by the affinity chromatography in (6-2) was measured at a wavelength of 280 nm using an ultraviolet spectrometer. […]
The fractions (1 mL) so collected were freeze-dried and then mixed with the ion exchanged water (100 μL) so as to dissolve the fractions again. […] A ready-made gel (ATTO PAGEL-Compact AE-6000 (containing SDS 12.5%)) was set in an electrophoretic cell filled with the electrophoresis buffer solution. […]
Specifically, 12.5% acrylamide gel (ATTO PAGEL-Compact AE-6000) was used to perform SDS-PAGE, and Coomassie brilliant blue was used for dyeing, the result of which is shown in FIG. 8. […] In the Mix-3 fraction, BSA and PSA bands disappeared and only Con A band was detected. […]

[3] = 1.0 μM Con A, Mal ligand chip against Glc ligand chip (2-channel), PBS pH 7.4, 25° C.

T4 sequence (P02701 25-152): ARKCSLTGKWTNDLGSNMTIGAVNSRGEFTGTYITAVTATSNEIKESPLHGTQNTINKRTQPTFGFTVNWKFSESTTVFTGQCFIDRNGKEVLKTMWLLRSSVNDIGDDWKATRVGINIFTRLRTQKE

**Q.** `O=C1N[C@H]2[C@H](CS[C@H]2CCCCC(=O)N(CCNC(=O)c2ccc(NC[C@H](O)[C@@H](O)[C@H](O[C@H]3O[C@H](CO)[C@@H](O)[C@H](O)[C@H]3O)[C@H](O)CO)cc2)CCNC(=O)c2ccc(NC[C@H](O)[C@@H](O)[C@H](O[C@H]3O[C@H](CO)[C@@H](O)[C@H](O)[C@H]3O)[C@H](O)CO)cc2)N1` [Compound 2-Mal, reference compound] was tested. Which Kd (concanavalin A (Con A) [1]) did it give?
**A.** 960 ± 50 nM

**Q.** What about the “kd: dissociation velocity constant” value (concanavalin A (Con A) [1]; [3]) of the same compound?
**A.** 1.4 ± 0.86 s^−1 × 10^−2

**Q.** And the kon (concanavalin A (Con A) [1]; 1.0 μM Con A, Mal ligand chip against Glc ligand chip (2-channel), PBS pH 7.4, 25° C., read-out: ka: binding velocity constant)?
**A.** 15000 ± 8600 M⁻¹ s⁻¹

**Q.** How did the “binding of Con A to ligand by SPR” value (concanavalin A (Con A) [1]) turn out when `O=C(CCN(CCC(=O)NCCN(CCC(=O)Nc1cccc(NCC(O)C(O)C(OC2OC(CO)C(O)C(O)C2O)C(O)CO)c1)CCC(=O)Nc1cccc(NCC(O)C(O)C(OC2OC(CO)C(O)C(O)C2O)C(O)CO)c1)C(=O)CCCCC1SCC2NC(=O)NC21)NCCN(CCC(=O)Nc1cccc(NCC(O)C(O)C(OC2OC(CO)C(O)C(O)C2O)C(O)CO)c1)CCC(=O)Nc1cccc(NCC(O)C(O)C(OC2OC(CO)C(O)C(O)C2O)C(O)CO)c1` (stereo not shown) [Compound 4-Mal] was run?
**A.** firmly binds

**Q.** What about the “KD (kd/ka): dissociation constant” value (concanavalin A (Con A) [1]; [3]) of the same compound?
**A.** 590 ± 60 nM

**Q.** What about the “kd: dissociation velocity constant” value (concanavalin A (Con A) [1]; [3]) of the same compound?
**A.** 0.72 ± 0.021 s^−1 × 10^−2

**Q.** What about the “specific interaction with PSA by SPR” value (Pea Lectin (PSA)) of the same compound?
**A.** do not specifically interact

**Q.** What about the “specific interaction with BSA by SPR” value (BSA) of the same compound?
**A.** do not specifically interact

**Q.** What about the “ligand immobilization quantity (resonant angle change)” value (neutroavidin) of the same compound?
**A.** 220 RU

**Q.** And the “retention of Con A on affinity column” value (concanavalin A (Con A) [2])?
**A.** A majority of Con A was retained
